Laboratory results as given in patent US12195482B1 (Arcus Biosciences, Inc., priority 2022, dated 2025).

Assays:
recombinant human MER = molecular target: T1, recombinant human MER (Homo sapiens, UniProt Q12866); experiment: Biochemical potency, HTRF KinEASE-TK kinase assay; conditions: 1 nM MER, 700 μM ATP
T1 construct: purchased Invitrogen
T1 sequence (Q12866 21-999): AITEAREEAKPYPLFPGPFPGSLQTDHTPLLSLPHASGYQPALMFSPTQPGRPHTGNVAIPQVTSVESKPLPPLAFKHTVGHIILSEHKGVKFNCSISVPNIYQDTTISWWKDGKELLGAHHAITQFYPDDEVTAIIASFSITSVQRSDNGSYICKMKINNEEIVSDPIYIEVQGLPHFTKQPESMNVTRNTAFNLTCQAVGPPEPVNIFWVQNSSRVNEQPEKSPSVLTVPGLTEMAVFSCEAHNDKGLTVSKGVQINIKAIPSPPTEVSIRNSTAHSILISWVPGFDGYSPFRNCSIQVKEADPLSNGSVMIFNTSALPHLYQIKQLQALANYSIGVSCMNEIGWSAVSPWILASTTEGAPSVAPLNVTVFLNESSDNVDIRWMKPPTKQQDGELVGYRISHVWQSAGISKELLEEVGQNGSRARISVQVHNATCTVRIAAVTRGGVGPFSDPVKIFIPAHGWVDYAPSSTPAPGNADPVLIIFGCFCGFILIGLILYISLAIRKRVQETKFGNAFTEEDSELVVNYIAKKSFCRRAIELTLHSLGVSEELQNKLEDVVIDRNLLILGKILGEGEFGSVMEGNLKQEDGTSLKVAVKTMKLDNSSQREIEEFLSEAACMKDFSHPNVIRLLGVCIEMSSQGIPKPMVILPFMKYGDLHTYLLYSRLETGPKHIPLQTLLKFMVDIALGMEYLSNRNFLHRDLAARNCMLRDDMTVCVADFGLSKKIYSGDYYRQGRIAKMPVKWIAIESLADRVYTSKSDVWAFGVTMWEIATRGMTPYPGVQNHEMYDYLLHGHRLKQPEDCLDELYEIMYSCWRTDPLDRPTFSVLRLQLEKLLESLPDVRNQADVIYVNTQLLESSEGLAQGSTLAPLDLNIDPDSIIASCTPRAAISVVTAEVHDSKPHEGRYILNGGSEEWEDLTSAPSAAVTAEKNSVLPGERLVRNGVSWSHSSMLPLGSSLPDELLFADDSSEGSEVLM
Method in brief: (§1)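 Steps: compound plus kinase, 1 h RT; add ATP (700 µM final) and biotin-TK substrate (800 nM final); run 2 h RT; stop into streptavidin-XL665/anti-phospho cryptate detection mix, 1 h; read 665/620. AXL at 5 nM, TYRO3 and MER at 1 nM.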

recombinant human TYRO3 = molecular target: T2, recombinant human TYRO3 (Homo sapiens, UniProt Q06418); experiment: Biochemical potency, HTRF KinEASE-TK kinase assay; conditions: 1 nM TYRO3, 700 μM ATP
T2 construct: purchased Invitrogen
T2 sequence (Q06418 41-890): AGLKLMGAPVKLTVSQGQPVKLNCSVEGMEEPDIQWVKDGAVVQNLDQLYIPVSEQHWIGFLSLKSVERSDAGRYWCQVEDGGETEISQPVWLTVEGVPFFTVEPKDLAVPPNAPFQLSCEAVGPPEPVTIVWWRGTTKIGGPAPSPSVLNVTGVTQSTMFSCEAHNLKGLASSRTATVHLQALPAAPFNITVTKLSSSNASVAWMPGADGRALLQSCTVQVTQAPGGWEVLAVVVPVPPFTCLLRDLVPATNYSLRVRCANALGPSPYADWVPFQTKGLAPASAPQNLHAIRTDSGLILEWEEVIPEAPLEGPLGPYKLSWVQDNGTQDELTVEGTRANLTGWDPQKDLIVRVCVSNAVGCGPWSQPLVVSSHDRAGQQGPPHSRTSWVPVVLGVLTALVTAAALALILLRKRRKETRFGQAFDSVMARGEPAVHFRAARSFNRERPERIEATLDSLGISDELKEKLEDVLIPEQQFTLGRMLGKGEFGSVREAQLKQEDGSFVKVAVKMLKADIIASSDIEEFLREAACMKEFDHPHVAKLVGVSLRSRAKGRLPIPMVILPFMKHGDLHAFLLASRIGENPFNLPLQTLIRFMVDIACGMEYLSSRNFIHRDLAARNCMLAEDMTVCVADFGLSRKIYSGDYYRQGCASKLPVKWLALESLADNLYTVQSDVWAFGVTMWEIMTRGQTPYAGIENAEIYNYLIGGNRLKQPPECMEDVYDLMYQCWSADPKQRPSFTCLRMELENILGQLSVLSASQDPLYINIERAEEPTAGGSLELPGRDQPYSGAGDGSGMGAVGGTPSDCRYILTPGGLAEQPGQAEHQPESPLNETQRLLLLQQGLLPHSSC
Method in brief: as §1

Row | SMILES | IC50 (recombinant human MER) [nM] | IC50 (recombinant human TYRO3) [nM]
1 | Cc1cc(C)c(-c2ccc(-c3n[nH]c4ncc(-c5ccc6c(c5)CC[C@@](C)(N5CCC[C@H]5C)CC6)cc34)cc2)nn1 [Example 78, 4,6-Dimethyl-3-(4-{5-[(7S)-7-methyl-7-[(2R)-2-methylpyrrolidin-1-yl]-6,7,8,9-tetrahydro-5H-benzo[7]annulen-2-yl]-1H-pyrazolo[3,4-b]pyridin-3-yl}phenyl)pyridazine] | < 100 | < 100
2 | Cc1cnc(-c2ccc(-c3c[nH]c4ncc(-c5ccc6c(c5)CC[C@@](C)(N5CCC[C@H]5C)CC6)cc34)cc2)c(C)n1 [Example 57, 3,5-Dimethyl-2-(4-{5-[(7S)-7-methyl-7-[(2R)-2-methylpyrrolidin-1-yl]-6,7,8,9-tetrahydro-5H-benzo[7]annulen-2-yl]-1H-pyrrolo[2,3-b]pyridin-3-yl}phenyl)pyrazine] | 100 to 1000 | 100 to 1000
3 | FC(F)(F)c1cccnc1-c1ccc(-c2n[nH]c3ncc(-c4ccc5c(c4)CC[C@@H](N4C6COCC4C6)CC5)cc23)cc1 [Example 88, 6-[(7S)-3-[3-[4-[3-(Trifluoromethyl)pyridin-2-yl]phenyl]-1H-pyrazolo[3,4-b]pyridin-5-yl]-6,7,8,9-tetrahydro-5H-benzo[7]annulen-7-yl]-3-oxa-6-azabicyclo[3.1.1]heptane] | 100 to 1000 | 100 to 1000
4 | CN(C)C(=O)c1ccccc1-c1ccc(-c2c[nH]c3ncc(-c4ccc5c(c4)CC[C@@H](N4C6COCC4C6)CC5)cc23)cc1 [Example 92, N,N-Dimethyl-4′-{5-[(7S)-7-{3-oxa-6-azabicyclo[3.1.1]heptan-6-yl}-6,7,8,9-tetrahydro-5H-benzo[7]annulen-2-yl]-1H-pyrrolo[2,3-b]pyridin-3-yl}-[1,1′-biphenyl]-2-carboxamide] | 100 to 1000 | < 100
5 | N#Cc1cccnc1-c1ccc(-c2n[nH]c3ncc(-c4ccc5c(c4)CC[C@@H](N4C6COCC4C6)CC5)cc23)cc1 [Example 52, 2-(4-{5-[(7S)-7-{3-Oxa-6-azabicyclo[3.1.1]heptan-6-yl}-6,7,8,9-tetrahydro-5H-benzo[7]annulen-2-yl]-1H-pyrazolo[3,4-b]pyridin-3-yl}phenyl)pyridine-3-carbonitrile] | 100 to 1000 | 100 to 1000
6 | Cc1ccnnc1-c1ccc(-c2n[nH]c3ncc(-c4ccc5c(c4)CC[C@@H](N4C6COCC4C6)CC5)cc23)nc1 [Example 56, 6-[(7S)-2-{3-[5-(4-Methylpyridazin-3-yl)pyridin-2-yl]-1H-pyrazolo[3,4-b]pyridin-5-yl}-6,7,8,9-tetrahydro-5H-benzo[7]annulen-7-yl]-3-oxa-6-azabicyclo[3.1.1]heptane] | 100 to 1000 | 100 to 1000
7 | Cc1cnc(-c2ccc(-c3c[nH]c4ncc(-c5ccc6c(c5)CC[C@@H](N5CCCC5)CC6)cc34)cc2)c(C)n1 [Example 59, 3,5-Dimethyl-2-(4-{5-[(7S)-7-(pyrrolidin-1-yl)-6,7,8,9-tetrahydro-5H-benzo[7]annulen-2-yl]-1H-pyrrolo[2,3-b]pyridin-3-yl}phenyl)pyrazine] | 100 to 1000 | 100 to 1000
8 | Fc1cc(-c2c[nH]c3ncc(-c4ccc5c(c4)CC[C@@H](N4C6COCC4C6)CC5)cc23)ccc1-c1ccccn1 [Example 40, 6-[(7S)-2-{3-[3-Fluoro-4-(pyridin-2-yl)phenyl]-1H-pyrrolo[2,3-b]pyridin-5-yl}-6,7,8,9-tetrahydro-5H-benzo[7]annulen-7-yl]-3-oxa-6-azabicyclo[3.1.1]heptane] | 100 to 1000 | 100 to 1000
